Measured values published in US4775680A, “Cyclohept[b]indolealkanoic acids, pharmaceutical compositions and use” (Merck & Co., Inc., priority 1987, dated 1988).

Legend:
[1] = biological target: T1, guinea pig tracheal chain (Cavia porcellus, UniProt A0A286Y4I8); test: Estimation of pA2 values in guinea pig tracheal chain (agonist U-44069); format: cell-based, guinea pig (male albino Hartley strain); conditions: for Kb: logarithmic scale, agonist U-44069, guinea pig tracheal chain
T1 construct: The trachea was removed, freed of extraneous tissue and sectioned into rings; from tissue; host or cells: guinea pig trachea (male albino Hartley strain)
T1 sequence (A0A286Y4I8 1-347): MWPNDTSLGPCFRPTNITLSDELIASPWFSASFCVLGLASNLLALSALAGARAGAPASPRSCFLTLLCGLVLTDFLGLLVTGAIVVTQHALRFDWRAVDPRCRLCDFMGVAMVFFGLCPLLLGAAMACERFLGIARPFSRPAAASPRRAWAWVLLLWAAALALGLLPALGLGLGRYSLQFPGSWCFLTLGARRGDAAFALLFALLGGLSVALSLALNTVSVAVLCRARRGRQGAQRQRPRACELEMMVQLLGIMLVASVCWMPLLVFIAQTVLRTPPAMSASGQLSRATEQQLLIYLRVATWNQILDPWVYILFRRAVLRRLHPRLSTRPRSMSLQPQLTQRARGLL
Source text: ESTIMATION OF pA2 VALUES IN GUINEA PIG TRACHEAL CHAIN
Male albino Hartley strain guinea pigs (300-350 gm) were sacrificed by a blow to the head and exsanguinated. The trachea was removed, freed of extraneous tissue and sectioned into rings of 1-2 mm thickness. Five rings were tied together in series, ensuring that the tracheal muscle lay in the same vertical plane, and the cartilage of each ring then separated at a point directly opposite the muscle. The chains were suspended under 1 gm resting tension in modified Krebs solution (NaCl, 6.87; NaHCO3, 2.1; dextrose, 2.1; KCl, 0.32; CaCl2, 0.28; MgSO4, 7H2 O, 0.11; KH2 PO4, 0.16; gm/L: equilibrated with 5% CO2 in O2 for 1 hour) containing indomethacin (1.4×10-^5 M) to suppress endogenous protaglandin synthesis, Organ bath temperature was maintained at 37° C. and 5% CO2 in O2 diffused continously. Isometric tension changes were recorded from a Gould-Statham (UTC 2) force displacement transducer connected to a Beckman Type R Dynograph. For assay purposes initial maximal contractions were elicited with a high concentration of the contractile agonist [U-44069, 9.11-dideoxy-9a,11a-epoxymethano PGF2a ] and the tissue subsequently washed at intervals until tension returned to baseline. Agonist dose response curves were obtained using a cumulative-dose schedule (4-8 doses) and the preparations then washed at regular intervals until baseline tension was recorded. After an appropriate interval (1-1.5 hrs) agonist dose response curves were repeated in the presence of antagonist drug concentrations. […] EC50 values were obtained by regression analysis and used to calculate `apparent` and Schild Plot pA2 values by the method of Tallarida and Murray 1981.
In Table 6 below are presented data indicating the prostanoid antagonist activities of compounds of the present invention indicated in Table 1. It is to be noted that pA2 values are on a logarithmic scale, so that, for instance, a difference between two pA2 values of 1 represents a difference in potency by a factor of 10.

[2] = test system: human platelets; test: Inhibition of U44069-induced threshold aggregation of human platelets; format: cell-based; conditions: compound A versus compound 1; compound B versus compound 3
Protocol: INHIBITION OF INDUCED THRESHOLD AGGREGATION OF HUMAN PLATELETS
Human platelet rich plasma (PRP) is prepared from venous blood of male volunteers who have taken no medication for ten days prior to test. Blood is transferred into plastic centrifuge tubes containing 3.8% Trisodium Citrate in 0.9% NaCl (in a ratio of blood to anticoagulant of 9:1), mixed by gentle inversion, and centrifuged at room temperature for ten minutes at 116 g. The supernatant (PRP) is transferred into plastic tubes. Platelet poor plasma (PPP) is obtained by centrifuging the residual blood cells at 4000 g for ten minutes. PRP is left to stand at least one half hour prior to testing.
Platelet Aggregation is measured using a Payton Aggregometer and Recorder. […]
The threshold (approximately 20-30% of maximum) aggregation concentration of the agonist to be used is first determined in the presence of the drug vehicle (control). […]
The height of the aggegation response (measured in divisions of the recorder paper, 1 division=2.5 mm) in the presence of the drug is recorded, and calculated as percent inhibition of the mean height of the control threshold responses. […]

| Compound | Kb [1] [nM] | further results |
| --- | --- | --- |
| CS(=O)(=O)c1ccc(Cn2c3c(c4cc(F)cc(F)c42)CCCC(CC(=O)O)C3)cc1 (stereo not drawn) | 8.32 |  |
| O=C(O)CC1CCCc2c(n(Cc3ccc(Cl)cc3)c3ccc(F)cc23)C1 (stereo not drawn) | 3.16 |  |
| O=C(O)CC1CCCCc2c1c1cc(F)ccc1n2Cc1ccc(Cl)cc1 (stereo not drawn) | 42.7 |  |
| O=C(O)C1CCCc2c(n(Cc3ccc(Cl)cc3)c3ccc(F)cc23)C1 (stereo not drawn) | 129 |  |
| O=C(O)CC1CCCCc2c1n(Cc1ccc(Cl)cc1)c1ccc(F)cc21 (stereo not drawn) | 1.35 |  |
| COc1ccc2c(c1)c1c(n2Cc2ccc(Cl)cc2)CC(CC(=O)O)CC1 (stereo not drawn) [Compound A, reference compound] |  | factor corresponding to the pA2 difference from compound 1 ([1]; compound A versus compound 1): 15; pA2 lower than that of compound 1 ([1]; compound A versus compound 1): 1.7 log units; potency as an inhibitor of platelet aggregation relative to the seven-membered ring analog [2]: seventy times less potent than compound 1 |
| COc1ccc2c(c1)c1c(n2Cc2ccc(Cl)cc2)CC(C(=O)O)CC1 (stereo not drawn) [Compound B, reference compound] |  | pA2 compared with compound 3, in words ([1]; compound B versus compound 3): slightly lower pA2 value; potency as an inhibitor of platelet aggregation relative to the seven-membered ring analog [2]: at least four times less potent than the latter |

Further lines, with some results ahead:

| Kb [1] [nM] | Compound | further results |
| --- | --- | --- |
| 158 | COc1ccc2c(c1)c1c(n2Cc2ccc(Cl)cc2)CC(CC(=O)O)CC1 (stereo not drawn) [drawing 26] |  |
| 158 | COc1ccc2c(c1)c1c(n2Cc2ccc(Cl)cc2)CC(C(=O)O)CC1 (stereo not drawn) [drawing 27] |  |
